Measured values from patent US20240092784A1, “CONDENSED HETEROCYCLIC COMPOUND” (NISSAN CHEMICAL CORPORATION, priority 2020, published 2024).
Counter-ions that a name gives are not always drawn. Like-named read-outs stand apart in the source and are kept apart here.

Target: human SPR (Homo sapiens (Human), UniProt P35270)
Test: Evaluation Example 2: Measurement of human SPR inhibitory activity (seven concentrations, sepiapterin absorbance at 420 nm)
Type: biochemical
Protocol: Human SPR was prepared as described below. The full-length human SPR (1-261) cDNA was purchased from Eurofins Genomics as an artificially synthesized plasmid containing a DNA sequence optimized for the E. coli expression system so that the sequence of the expressed protein after transcription and translation matches the sequence described in UniprotKB (P35270).
Linearized insert and vector were prepared by PCR using primers designed for amplification of human SPR cDNA and primers designed to contain the thrombin recognition sequence of pET28a (Novagen) and a polyhistidine tag. Cloning was performed using In-Fusion (registered trademark) HD Cloning Kit (TaKaRa) to thereby construct a human SPR expression plasmid. The resultant human SPR expression plasmid was transformed into BL21 (DE3) competent cells (INVITROGEN).
The cells were inoculated into LB medium (1% triptone, 0.5% yeast extract, 1% sodium chloride) containing […] of kanamycin, and then precultured at 37° C. overnight. The precultured cells were inoculated into TB medium (1.2% triptone, 2.4% yeast extract, 9.4% dipotassium hydrogen phosphate, 2.2% potassium dihydrogen phosphate, 0.8% glycerin) containing […] of kanamycin, and the cultured at 37° C., to thereby induce SPR expression with 0.5 mM IPTG for four hours. After the induction, the cells were collected by centrifugation at 6,000 G for 30 minutes and washed with PBS, and the washing was discarded. The washed cells were suspended in buffer solution A (20 mM MES, pH 6.5, 100 mM sodium chloride, 1 mM DTT, 5 mM imidazole). Subsequently, the cell suspension was subjected to ultrasonic treatment to thereby homogenize the cells. The cell homogenate was clarified by centrifugation at 30,000 G for 60 minutes and then filtered with a […]. The filtrate was allowed to pass through HisTrapFF 5 mL column (GE Healthcare). The resin was washed with buffer A, and then gradient elution was performed with buffer B (20 mM MES, pH 6.5, 100 mM sodium chloride, 1 mM DTT, 500 mM imidazole). Thrombin was added to a fraction containing the SPR protein, and the mixture was dialyzed in buffer A overnight, to thereby cleave the tag. After removal of the thrombin by with Benzamidine Sepharose 4 FF (GE Healthcare), the resultant product was allowed to pass through the HisTrapFF 5 mL column, to thereby remove the tag, followed by concentration with Amicon Ultra 10,000 NMWL (Merck Millipore). The concentrate was purified by gel filtration using HiLoad 16/60 Superdex 75 pg (GE Healthcare) equilibrated with buffer C (20 mM MES, pH 6.5, 100 mM sodium chloride, 1 mM DTT). The fraction containing SPR protein was concentrated and then cryopreserved at −80° C.
Human SPR inhibitory activity was measured by using a 384-well low adsorption clear plate (Greiner) with buffer D containing 100 mM Tris-HCl (pH 7.5) (Thermo Fisher Scientific) and 0.01% bovine serum albumin (Sigma). A compound was diluted with DMSO to achieve seven different final concentrations; i.e., 0.14 nM, 0.41 nM, 1.23 nM, 3.7 nM, 11.1 nM, 33 nM, and 100 nM. A 1.5 μL aliquot of the compound solution prepared with DMSO was diluted with 250 μL of buffer D, and the thus-diluted solution was dispensed into the 384-well plate at 20 μL/well. Thereafter, human SPR was diluted with buffer D to 150 ng/mL and then dispensed into the 384-well plate at 20 μL/well. Subsequently, 40 μL of ultrapure water containing 120 μM sepiapterin (produced by the method described in L-Sepiapterin, Heterocycles, 2008, 76, 1329-1335 and WO 2013/168693) and 160 μM NADPH (Nacalai) was added to each well, and then reaction was initiated. The reaction mixture was incubated at room temperature for 240 minutes. Thereafter, in order to determine the amount of sepiapterin, the absorbance at 420 nm was measured by applying the 384-well plate to EnSpire multimode plate reader (Perkin Elmer). The percent inhibition (%) of human SPR by the test compound was calculated by the following formula.

[1] = Evaluation Example 2, seven concentrations 0.14 nM to 100 nM, 240 minutes at room temperature, read-out: IC50
[2] = sepiapterin absorbance, Table 41, read-out: concentration at 50% inhibition of human SPR (IC50)

Chain of human SPR (P35270 whole entry): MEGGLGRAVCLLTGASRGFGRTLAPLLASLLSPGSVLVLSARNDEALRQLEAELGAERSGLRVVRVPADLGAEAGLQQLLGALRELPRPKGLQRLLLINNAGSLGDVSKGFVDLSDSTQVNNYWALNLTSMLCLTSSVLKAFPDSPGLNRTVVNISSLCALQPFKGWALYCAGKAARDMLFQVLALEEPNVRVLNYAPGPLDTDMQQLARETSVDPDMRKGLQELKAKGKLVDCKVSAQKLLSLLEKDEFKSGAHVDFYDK

| Compound | IC50 [1] | IC50 [2] |
| --- | --- | --- |
| CCC(N)c1cc2n(CC(C)(C)C)c(=O)c(C(=O)NC3CC3)c(O)n2n1 (racemic) [Synthesis Example 280, 2-(1-Aminopropyl)-N-cyclopropyl-7-hydroxy-4-neopentyl-5-oxo-4,5-dihydropyrazolo[1,5-a]pyrimidine-6-carboxamide hydrochloride (racemate)] | 5.64 nM | – |
| Cc1nn2c(O)c(C(=O)NC3CC3)c(=O)n(CC(C)C)c2c1/C=C/C(=O)N1C[C@@H](F)[C@H](F)C1 (racemic) [Synthesis Example 649, N-Cyclopropyl-3-((E)-3-(trans-3,4-difluoropyrrolidin-1-yl)-3-oxoprop-1-en-1-yl)-7-hydroxy-4-isobutyl-2-methyl-5-oxo-4,5-dihydropyrazolo[1,5-a]pyrimidine-6-carboxamide] | 0.73 nM | – |
| CC(C)Cn1c(=O)c(C(=O)NC2CC2)c(O)n2ncc(/C=C/C(=O)N3C[C@@H](F)[C@H](F)C3)c12 (racemic) [Synthesis Example 723, N-Cyclopropyl-3-((E)-3-(trans-3,4-difluoropyrrolidin-1-yl)-3-oxoprop-1-en-1-yl)-7-hydroxy-4-isobutyl-5-oxo-4,5-dihydropyrazolo[1,5-a]pyrimidine-6-carboxamide (racemate)] | – | 0.69 nM |
| CC(C)Cn1c(=O)c(C(=O)NC2CC2)c(O)n2ncc(/C=C/C(=O)N3CCC(C)(O)C3)c12 (racemic) [compound 500, (E)-N-Cyclopropyl-7-hydroxy-3-(3-(3-hydroxy-3-methylpyrrolidin-1-yl)-3-oxoprop-1-en-1-yl)-4-isobutyl-5-oxo-4,5-dihydropyrazolo[1,5-a]pyrimidine-6-carboxamide (racemate)] | 0.88 nM | – |
| CC(C)Cn1c(=O)c(C(=O)NC2CC2)c(O)n2ncc(/C=C/C(=O)N3CCC(F)(F)CC3C)c12 (racemic) [compound 546, (E)-N-Cyclopropyl-3-(3-(4,4-difluoro-2-methylpiperidin-1-yl)-3-oxoprop-1-en-1-yl)-7-hydroxy-4-isobutyl-5-oxo-4,5-dihydropyrazolo[1,5-a]pyrimidine-6-carboxamide (racemate)] | 0.77 nM | – |
| CC(C)Cn1c(=O)c(C(=O)NC2CC2)c(O)n2ncc(/C=C/C(=O)N3CCC4CC43)c12 (racemic) [compound 588, (E)-3-(3-(2-Azabicyclo[3.1.0]hexan-2-yl)-3-oxoprop-1-en-1-yl)-N-cyclopropyl-7-hydroxy-4-isobutyl-5-oxo-4,5-dihydropyrazolo[1,5-a]pyrimidine-6-carboxamide (racemate)] | 1.59 nM | – |
| CC(C)Cn1c(=O)c(C(=O)NC2CC2)c(O)n2ncc(/C=C/C(=O)N3CCCC3C3CC3)c12 (racemic) [compound 593, (E)-N-Cyclopropyl-3-(3-(2-cyclopropylpyrrolidin-1-yl)-3-oxoprop-1-en-1-yl)-7-hydroxy-4-isobutyl-5-oxo-4,5-dihydropyrazolo[1,5-a]pyrimidine-6-carboxamide (racemate)] | 1.48 nM | – |
| CC(C)Cn1c(=O)c(C(=O)NC2CC2)c(O)n2ncc(/C=C/C(=O)N3CCC(C(F)(F)F)C3)c12 (racemic) [compound 595, (E)-N-Cyclopropyl-7-hydroxy-4-isobutyl-5-oxo-3-(3-oxo-3-(3-(trifluoromethyl)pyrrolidin-1-yl)prop-1-en-1-yl)-4,5-dihydropyrazolo[1,5-a]pyrimidine-6-carboxamide (racemate)] | 1.54 nM | – |
| CC(C)Cn1c(=O)c(C(=O)NC2CC2)c(O)n2ncc(/C=C/C(=O)N3CCC(C(F)F)C3)c12 (racemic) [compound 596, (E)-N-Cyclopropyl-3-(3-(3-(difluoromethyl)pyrrolidin-1-yl)-3-oxoprop-1-en-1-yl)-7-hydroxy-4-isobutyl-5-oxo-4,5-dihydropyrazolo[1,5-a]pyrimidine-6-carboxamide (racemate)] | 0.96 nM | – |
| Cc1nn2c(O)c(C(=O)NC3CC3)c(=O)n(CC(C)C)c2c1/C=C/C(=O)N1CCC2CC21 (racemic) [compound 609, (E)-3-(3-(2-Azabicyclo[3.1.0]hexan-2-yl)-3-oxoprop-1-en-1-yl)-N-cyclopropyl-7-hydroxy-4-isobutyl-2-methyl-5-oxo-4,5-dihydropyrazolo[1,5-a]pyrimidine-6-carboxamide (racemate)] | 1.23 nM | – |
| COC(C)Cn1c(=O)c(C(=O)NC2CC2)c(O)n2ncc(/C=C/C(=O)N3CCOCC3)c12 (single isomer, unassigned) [Synthesis Example 384, (E)-N-Cyclopropyl-7-hydroxy-4-(2-methoxypropyl)-3-(3-morpholino-3-oxoprop-1-en-1-yl)-5-oxo-4,5-dihydropyrazolo[1,5-a]pyrimidine-6-carboxamide] | 0.82 nM | – |
| COC(C)Cn1c(=O)c(C(=O)NC2CC2)c(O)n2ncc(/C=C/C(=O)N3CCOCC3)c12 (single isomer, unassigned) [Synthesis Example 385, (E)-N-Cyclopropyl-7-hydroxy-4-(2-methoxypropyl)-3-(3-morpholino-3-oxoprop-1-en-1-yl)-5-oxo-4,5-dihydropyrazolo[1,5-a]pyrimidine-6-carboxamide] | 0.83 nM | – |
| CC(Cn1c(=O)c(C(=O)NC2CC2)c(O)n2ncc(/C=C/C(=O)N3CCOCC3)c12)C(F)(F)F (single isomer, unassigned) [Synthesis Example 388, (E)-N-Cyclopropyl-7-hydroxy-3-(3-morpholino-3-oxoprop-1-en-1-yl)-5-oxo-4-(3,3,3-trifluoro-2-methylpropyl)-4,5-dihydropyrazolo[1,5-a]pyrimidine-6-carboxamide] | 1.53 nM | – |
| CC(Cn1c(=O)c(C(=O)NC2CC2)c(O)n2ncc(/C=C/C(=O)N3CCOCC3)c12)C(F)(F)F (single isomer, unassigned) [Synthesis Example 389, (E)-N-Cyclopropyl-7-hydroxy-3-(3-morpholino-3-oxoprop-1-en-1-yl)-5-oxo-4-(3,3,3-trifluoro-2-methylpropyl)-4,5-dihydropyrazolo[1,5-a]pyrimidine-6-carboxamide] | 0.95 nM | – |
| CC(C)Cn1c(=O)c(C(=O)NC2CC2)c(O)n2ncc(/C=C/C(=O)N3CCOCC3CC(F)(F)F)c12 (single isomer, unassigned) [compound 550, (E)-N-Cyclopropyl-7-hydroxy-4-isobutyl-5-oxo-3-(3-oxo-3-(3-(2,2,2-trifluoroethyl)morpholino)prop-1-en-1-yl)-4,5-dihydropyrazolo[1,5-a]pyrimidine-6-carboxamide (Isomer] | 0.79 nM | – |
| Cc1nn2c(O)c(C(=O)NC3CC3)c(=O)n(CC(C)C)c2c1/C=C/C(=O)N1C[C@@H](F)[C@H](F)C1 (single isomer, unassigned; isomer a) [Synthesis Example 755, N-Cyclopropyl-3-((E)-3-(trans-3,4-difluoropyrrolidin-1-yl)-3-oxoprop-1-en-1-yl)-7-hydroxy-4-isobutyl-2-methyl-5-oxo-4,5-dihydropyrazolo[1,5-a]pyrimidine-6-carboxamide (Isomer A)] | – | 0.61 nM |
| Cc1nn2c(O)c(C(=O)NC3CC3)c(=O)n(CC(C)C)c2c1/C=C/C(=O)N1C[C@@H](F)[C@H](F)C1 (single isomer, unassigned; isomer b) [Synthesis Example 756, N-Cyclopropyl-3-((E)-3-(trans-3,4-difluoropyrrolidin-1-yl)-3-oxoprop-1-en-1-yl)-7-hydroxy-4-isobutyl-2-methyl-5-oxo-4,5-dihydropyrazolo[1,5-a]pyrimidine-6-carboxamide (Isomer B)] | – | 0.71 nM |
